Test systems include SF-268 CNS; COLO 205 colon; LOX IMVI melanoma; MDA-MB-435; EKVX NSCLC; MDA-MB-231 breast; SNB-19 CNS; SR leukemia; KM12 colon; UO-31 renal.
Common to all, as to experiment: DTP human tumour cell line panel, 48 h

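All cell lines were grown in 96-well plates and treated with compound for 48 hours. Here, GI50 denotes the concentration required for 50% inhibition of growth. Definition used: TGI = concentration required for complete inhibition of growth.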 Bounds are passed on as bounds.

Broadly, the TGI is the concentration at which net growth stops. Low readings indicate more potent growth arrest, high ones less potent growth arrest. As a reminder, the GI50 is the concentration at which growth is held to half of that of the control.

In the case of `CC[N+]1(C)CCC(O)(/C=C/c2ccccc2)C(C(=O)/C=C/c2ccccc2)C1` (stereo not given), the TGI in the assay on SF-268 CNS was found to be 60.5 µM; with COLO 205 colon it was 8.19 µM; with LOX IMVI melanoma it was 7.79 µM; in the assay with MDA-MB-435 it was 31.7 µM; in the assay with EKVX NSCLC it was 51.6 µM; in the assay on MDA-MB-231 breast, 31 µM. Moreover, the TGI in the assay on SNB-19 CNS stood at 29.7 µM; with SR leukemia, 6.68 µM; with KM12 colon it was 10.2 µM; with UO-31 renal, 29.5 µM.
For the molecule `Cn1cnc2nc(Cl)nc(Cl)c21`, the GI50 in the assay on SF-268 CNS is 3.22 µM; in the assay with COLO 205 colon, 2.18 µM; in the assay on LOX IMVI melanoma, 0.406 µM; in the assay on MDA-MB-435 it was 0.445 µM; in the assay on EKVX NSCLC, 13.6 µM; in the assay on MDA-MB-231 breast, 4.26 µM. For the same molecule, the GI50 in the assay with SNB-19 CNS is 5.79 µM; in the assay on SR leukemia, 0.599 µM; in the assay with KM12 colon, 0.43 µM; with UO-31 renal, 9.96 µM. The TGI in the assay with SF-268 CNS was found to be 38.2 µM; in the assay on COLO 205 colon it was 5.27 µM; with LOX IMVI melanoma, 16.8 µM; in the assay with MDA-MB-435, 13.7 µM; in the assay with EKVX NSCLC it was 34.8 µM; in the assay with MDA-MB-231 breast, 33.2 µM. The TGI in the assay with SNB-19 CNS was 57.8 µM; in the assay with SR leukemia it was 28.7 µM; with KM12 colon, 2.46 µM; in the assay on UO-31 renal, more than 100 µM.
As for `COc1cc(OC)c(-c2oc3ccccc3c(=O)c2O)c(OC)c1`, the TGI in the assay with SF-268 CNS was more than 100 µM; with COLO 205 colon it was more than 100 µM; with LOX IMVI melanoma, more than 100 µM; with MDA-MB-435 it was 2.5 µM; in the assay with EKVX NSCLC it was more than 100 µM; in the assay on MDA-MB-231 breast, more than 100 µM. For the same molecule, the TGI with SNB-19 CNS, in the assay with SR leukemia, with KM12 colon and in the assay on UO-31 renal was more than 100 µM in each case.

(Values after PubChem BioAssay (NCI).)
